From patent US9540343B2 (Gilead Sciences, Inc., priority 2011, dated 2017)

What was measured:
[1] = in vitro; settings: human, uninfected MT-4 cells, CC50 (nM), same protocol as Test A, CellTiter-Glo
How it was run: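 Cytoprotection read-out: CellTiter-Glo chemiluminescence after 5 days at 37 °C of HIV-IIIb-infected MT-4 cells (m.o.i. 0.003) with compound in 10-point 3-fold dilutions, quadruplicate, 10% FBS. Cytotoxicity (CC50) measured identically without virus.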

[2] = tested on: HIV-IIIb; experiment: Test A: Antiviral assay in MT4 cells; format: cell-based, HIV-1; settings: Human immunodeficiency virus 1, IIIB, MT4, 120 h, read-out: % inhibition at 2 μM, percent inhibition of virus-induced cell killing, from dose response curve at 2 uM drug; MT-4 cells infected with HIV-IIIb, 5 days, CellTiter-Glo

CCOC(=O)c1nn(CC(=O)N[C@@H](Cc2cc(F)cc(F)c2)c2ncccc2-c2ccc(F)c(C(N)=O)c2)c2c1C1CCC2C1 (stereo partly drawn) [Example 90F, (S)-5-(2-(2-(3,5-difluorophenyl)-1-(2-(4,5,6,7-tetrahydro-3-carboethoxy-4,7-(methano)indazol-1-yl)acetamido)ethyl)pyridin-3-yl)-2-fluorobenzamide]
CC50 at 5 days [1]: 34600 nM
inhibition at 2 µM [2]: 13%

NC(=O)c1cc(-c2cccnc2[C@H](Cc2cc(F)cc(F)c2)NC(=O)Cn2cc(C(F)(F)F)nc2COCc2ccccc2)ccc1F [Example 91B, (S)-5-(2-(1-(2-(2-(benzyloxymethyl)-4-(trifluoromethyl)-1H-imidazol-1-yl)acetamido)-2-(3,5-difluorophenyl)ethyl)pyridin-3-yl)-2-fluorobenzamide]
CC50 at 5 days [1]: 22000 nM
inhibition at 2 µM [2]: 17%

O=C(Cc1c[nH]c2ccc(F)cc12)N[C@@H](Cc1cc(F)cc(F)c1)c1ncccc1-c1cccc(OCc2ccccc2)c1 [Example 92, (S)—N-(1-(3-(3-(benzyloxy)phenyl)pyridin-2-yl)-2-(3,5-difluorophenyl)ethyl)-2-(5-fluoro-1H-indol-3-yl)acetamide]
CC50 at 5 days [1]: 10300 nM
inhibition at 2 µM [2]: 0%

Cc1noc(C)c1-c1cccnc1[C@H](Cc1cc(F)cc(F)c1)NC(=O)Cc1c[nH]c2ccc(F)cc12 [Example 94, N-((1S)-2-(3,5-difluorophenyl)-1-(3-(3,5-dimethylisoxazol-4-yl)pyridin-2-yl)ethyl)-2-(5-fluoro-1H-indol-3-yl)acetamide]
CC50 at 5 days [1]: 42000 nM
inhibition at 2 µM [2]: 3%

N#Cc1cccc(-c2cccnc2[C@H](Cc2cc(F)cc(F)c2)NC(=O)Cn2ccc3ccccc32)c1 [Example 95C, (S)—N-(1-(3-(3-cyanophenyl)pyridin-2-yl)-2-(3,5-difluorophenyl)ethyl)-2-(1H-indol-1-yl)acetamide]
CC50 at 5 days [1]: 14600 nM
inhibition at 2 µM [2]: 14%

NC(=O)c1cc(-c2cccnc2[C@H](Cc2cc(F)cc(F)c2)NC(=O)Cn2nc(C=O)c3c2C2CC(C3)C2)ccc1F [Example 96, (S)-5-(2-(2-(3,5-difluorophenyl)-1-(2-(4,5,6,7-tetrahydro-3-formyl-5,7-(methano)indazol-1-yl)acetamido)ethyl)pyridin-3-yl)-2-fluorobenzamide]
CC50 at 5 days [1]: 9620 nM
inhibition at 2 µM [2]: 104%

O=C(Cn1nc(C(F)F)c2c1C(F)(F)C1CC21)N[C@@H](Cc1cc(F)cc(F)c1)c1ncccc1-c1ccc2cccnc2c1 (stereo partly drawn) [Example 97, (S)—N-(1-(3-(quinoline-7-yl)-pyridin-2-yl)-2-(3,5-difluorophenyl)ethyl)-2-(3-(difluoromethyl)-5,6-dihydro-4,5-(methano)-6,6-difluoro-cyclopenta[c]pyrazol-1(4H)-yl)acetamide]
CC50 at 5 days [1]: 33900 nM
inhibition at 2 µM [2]: 27%

O=C(Cn1nc(C(F)F)c2c1C(F)(F)C1CC21)N[C@@H](Cc1cc(F)cc(F)c1)c1ncccc1-c1ccc(S(=O)(=O)NC2CCCCC2)cc1 (stereo partly drawn) [Example 98, (S)—N-(1-(3-(4-(N-cyclohexylsulfamoyl)phenyl)-pyridin-2-yl)-2-(3,5-difluorophenyl)ethyl)-2-(3-(difluoromethyl)-5,6-dihydro-4,5-(methano)-6,6-difluoro-cyclopenta[c]pyrazol-1(4H)-yl)acetamide]
CC50 at 5 days [1]: 18000 nM
inhibition at 2 µM [2]: 13%

Cc1nnc(-c2cccc(-c3cccnc3[C@H](Cc3cc(F)cc(F)c3)NC(=O)Cc3c[nH]c4ccc(F)cc34)c2)o1 [Example 99, (S)—N-(2-(3,5-difluorophenyl)-1-(3-(3-(5-methyl-1,3,4-oxadiazol-2-yl)phenyl)pyridin-2-yl)ethyl)-2-(5-fluoro-1H-indol-3-yl)acetamide]
CC50 at 5 days [1]: > 53200 nM
inhibition at 2 µM [2]: 0%

CC(C)Oc1ccc(-c2cccnc2[C@H](Cc2cc(F)cc(F)c2)NC(=O)Cn2nc(C(F)(F)F)c3c2CCCC3)cc1 [Example 100, (S)—N-(2-(3,5-difluorophenyl)-1-(3-(4-isopropoxyphenyl)pyridin-2-yl)ethyl)-2-(3-(trifluoromethyl)-4,5,6,7-tetrahydro-1H-indazol-1-yl)acetamide]
CC50 at 5 days [1]: 7830 nM
inhibition at 2 µM [2]: 56%

O=C(Cc1c[nH]c2ccc(F)cc12)N[C@@H](Cc1cc(F)cc(F)c1)c1ncccc1-c1ccc(N2CCCC2)nc1 [Example 101, (S)—N-(2-(3,5-difluorophenyl)-1-(6′-(pyrrolidin-1-yl)-3,3′-bipyridin-2-yl)ethyl)-2-(5-fluoro-1H-indol-3-yl)acetamide]
CC50 at 5 days [1]: 12600 nM
inhibition at 2 µM [2]: 29%

CC(C)Cc1ccc(-c2cccnc2[C@H](Cc2cc(F)cc(F)c2)NC(=O)Cc2c[nH]c3ccc(F)cc23)cc1 [Example 103, (S)—N-(2-(3,5-difluorophenyl)-1-(3-(4-isobutylphenyl)pyridin-2-yl)ethyl)-2-(5-fluoro-1H-indol-3-yl)acetamide]
CC50 at 5 days [1]: 5170 nM
inhibition at 2 µM [2]: 0%

O=C(Cn1nc(C(F)F)c2c1C(F)(F)C1CC21)N[C@@H](Cc1cc(F)cc(F)c1)c1ncccc1-c1ccc2ccncc2c1 (stereo partly drawn) [Example 104, (S)—N-(1-(3-(isoquinolin-7-yl)-pyridin-2-yl)-2-(3,5-difluorophenyl)ethyl)-2-(3-(difluoromethyl)-5,6-dihydro-4,5-(methano)-6,6-difluoro-cyclopenta[c]pyrazol-1(4H)-yl)acetamide]
CC50 at 5 days [1]: 15700 nM
inhibition at 2 µM [2]: 32%

O=C(Cn1nc(C(F)(F)F)c2c1CCCC2)N[C@@H](Cc1cc(F)cc(F)c1)c1ncccc1-c1ccc(S(=O)(=O)N2CCOCC2)cc1 [Example 105, (S)—N-(2-(3,5-difluorophenyl)-1-(3-(4-(morpholinosulfonyl)phenyl)pyridin-2-yl)ethyl)-2-(3-(trifluoromethyl)-4,5,6,7-tetrahydro-1H-indazol-1-yl)acetamide]
CC50 at 5 days [1]: 9080 nM
inhibition at 2 µM [2]: 99%

NC(=O)c1cc(-c2cccnc2[C@H](Cc2cc(F)cc(F)c2)NC(=O)Cn2cc(C(F)(F)F)nc2C2CCCC2)ccc1F [Example 107E, (S)-5-(2-(1-(2-(2-cyclopentyl-4-(trifluoromethyl)-1H-imidazol-1-yl)acetamido)-2-(3,5-difluorophenyl)ethyl)pyridin-3-yl)-2-fluorobenzamide]
CC50 at 5 days [1]: 42800 nM
inhibition at 2 µM [2]: 30%

NC(=O)c1cccc(-c2cccnc2[C@H](Cc2cc(F)cc(F)c2)NC(=O)Cn2ncc3ccccc32)c1 [Example 108, (S)-3-(2-(1-(2-(1H-indazol-1-yl)acetamido)-2-(3,5-difluorophenyl)ethyl)pyridin-3-yl)benzamide]
CC50 at 5 days [1]: > 53000 nM
inhibition at 2 µM [2]: 13%

Cc1ccccc1-c1cccnc1[C@H](Cc1cc(F)cc(F)c1)NC(=O)Cc1c[nH]c2ccc(F)cc12 [Example 109, (S)—N-(2-(3,5-difluorophenyl)-1-(3-o-tolylpyridin-2-yl)ethyl)-2-(5-fluoro-1H-indol-3-yl)acetamide]
CC50 at 5 days [1]: 9080 nM
inhibition at 2 µM [2]: 50%

O=C(Cc1c[nH]c2ccc(F)cc12)N[C@@H](Cc1cc(F)cc(F)c1)c1ncccc1-c1cccc(C(F)(F)F)c1 [Example 110, (S)—N-(2-(3,5-difluorophenyl)-1-(3-(3-(trifluoromethyl)phenyl)pyridin-2-yl)ethyl)-2-(5-fluoro-1H-indol-3-yl)acetamide]
CC50 at 5 days [1]: 7610 nM
inhibition at 2 µM [2]: 6%

O=C(Cc1c[nH]c2ccc(F)cc12)N[C@@H](Cc1cc(F)cc(F)c1)c1ncccc1-c1cnc2ccccc2c1 [Example 111, (S)—N-(2-(3,5-difluorophenyl)-1-(3-(quinolin-3-yl)pyridin-2-yl)ethyl)-2-(5-fluoro-1H-indol-3-yl)acetamide]
CC50 at 5 days [1]: 9950 nM
inhibition at 2 µM [2]: 41%

O=C(Cc1c[nH]c2ccc(O)cc12)N[C@@H](Cc1cc(F)cc(F)c1)c1ncccc1-c1ccc(F)cc1 [Example 113, (S)—N-(2-(3,5-difluorophenyl)-1-(3-(4-fluorophenyl)pyridin-2-yl)ethyl)-2-(5-hydroxy-1H-indol-3-yl)acetamide]
CC50 at 5 days [1]: 22300 nM
inhibition at 2 µM [2]: 78%

O=C(Cn1nc(C(F)F)c2c1C(F)(F)C1CC21)N[C@@H](Cc1cc(F)cc(F)c1)c1ncccc1-c1ccc(NC(=O)NC2CC2)cc1 (stereo partly drawn) [Example 114, (S)—N-(1-(3-(4-(3-cyclopropylureido)phenyl)-pyridin-2-yl)-2-(3,5-difluorophenyl)ethyl)-2-(3-(difluoromethyl)-5,6-dihydro-4,5-(methano)-6,6-difluoro-cyclopenta[c]pyrazol-1(4H)-yl)acetamide]
CC50 at 5 days [1]: > 53200 nM
inhibition at 2 µM [2]: 32%

CCN(CC)S(=O)(=O)c1ccc(-c2cccnc2[C@H](Cc2cc(F)cc(F)c2)NC(=O)Cn2nc(C(F)F)c3c2C(F)(F)C2CC32)cc1 (stereo partly drawn) [Example 116, (S)—N-(1-(3-(4-(N,N-diethylsulfamoyl)phenyl)-pyridin-2-yl)-2-(3,5-difluorophenyl)ethyl)-2-(3-(difluoromethyl)-5,6-dihydro-4,5-(methano)-6,6-difluoro-cyclopenta[c]pyrazol-1(4H)-yl)acetamide]
CC50 at 5 days [1]: > 53200 nM
inhibition at 2 µM [2]: 72%

O=C(Cn1nc(C(F)(F)F)c2c1CCCC2)N[C@@H](Cc1cc(F)cc(F)c1)c1ncccc1-c1cccc(F)c1 [Example 117, (S)—N-(2-(3,5-difluorophenyl)-1-(3-(3-fluorophenyl)pyridin-2-yl)ethyl)-2-(3-(trifluoromethyl)-4,5,6,7-tetrahydro-1H-indazol-1-yl)acetamide]
CC50 at 5 days [1]: 8260 nM
inhibition at 2 µM [2]: 89%

CN(C)S(=O)(=O)c1ccc(-c2cccnc2[C@H](Cc2cc(F)cc(F)c2)NC(=O)Cn2nc(C(F)F)c3c2C(F)(F)C2CC32)cc1 (stereo partly drawn) [Example 119, (S)—N-(1-(3-(4-(N,N-dimethylsulfamoyl)phenyl)-pyridin-2-yl)-2-(3,5-difluorophenyl)ethyl)-2-(3-(difluoromethyl)-5,6-dihydro-4,5-(methano)-6,6-difluoro-cyclopenta[c]pyrazol-1(4H)-yl)acetamide]
CC50 at 5 days [1]: > 53200 nM
inhibition at 2 µM [2]: 48%
